According to ChEMBL document CHEMBL3797055, “Glabridin-chalcone hybrid molecules: drug resistance reversal agent against clinical isolates of methicillin-resistant Staphylococcus aureus” (Medchemcomm, 2016):
In brackets after ≈: the same amount, converted by molar mass.

Tests used:
Format in all cases: functional
Staphylococcus aureus [1] = experiment: Bactericidal activity against clinical isolates of methicillin-resistant Staphylococcus aureus ST2071 assessed as reduction in viability at MIC after 24 hrs by time kill kinetic analysis relative to control
Staphylococcus aureus [2] = experiment: Antibacterial activity against clinical isolates of methicillin-resistant Staphylococcus aureus P4650 by checkerboard assay in presence of norfloxacin
Staphylococcus aureus [3] = experiment: Potentiation of norfloxacin-induced antibacterial activity against clinical isolates of methicillin-resistant Staphylococcus aureus ST2071 assessed as reduction in norfloxacin MIC by checkerboard assay relative to control
Staphylococcus aureus [4] = experiment: Potentiation of norfloxacin-induced antibacterial activity against clinical isolates of methicillin-resistant Staphylococcus aureus P4650 assessed as reduction in norfloxacin MIC by checkerboard assay relative to control
Staphylococcus aureus [5] = experiment: Antibacterial activity against clinical isolates of methicillin-resistant Staphylococcus aureus P4629 by broth microdilution assay
Staphylococcus aureus [6] = experiment: Antibacterial activity against clinical isolates of methicillin-resistant Staphylococcus aureus P4629 by checkerboard assay in presence of norfloxacin
Staphylococcus aureus [7] = experiment: Antibacterial activity against clinical isolates of methicillin-resistant Staphylococcus aureus P4423 by checkerboard assay in presence of norfloxacin
Staphylococcus aureus [8] = experiment: Potentiation of norfloxacin-induced antibacterial activity against clinical isolates of methicillin-resistant Staphylococcus aureus ST10760 assessed as reduction in norfloxacin MIC by checkerboard assay relative to control
Staphylococcus aureus [9] = experiment: Potentiation of norfloxacin-induced antibacterial activity against clinical isolates of methicillin-resistant Staphylococcus aureus ST10342 assessed as reduction in norfloxacin MIC by checkerboard assay relative to control
Staphylococcus aureus [10] = experiment: Potentiation of norfloxacin-induced antibacterial activity against clinical isolates of methicillin-resistant Staphylococcus aureus P4423 assessed as reduction in norfloxacin MIC by checkerboard assay relative to control
Staphylococcus aureus [11] = experiment: Antibacterial activity against Staphylococcus aureus MTCC 96 by broth microdilution assay
Staphylococcus aureus [12] = experiment: Antibacterial activity against clinical isolates of methicillin-resistant Staphylococcus aureus ST10760 by broth microdilution assay
Staphylococcus aureus [13] = experiment: Antibacterial activity against clinical isolates of methicillin-resistant Staphylococcus aureus ST10760 by checkerboard assay in presence of norfloxacin
Staphylococcus aureus [14] = experiment: Potentiation of norfloxacin-induced antibacterial activity against clinical isolates of methicillin-resistant Staphylococcus aureus P4650 assessed as norfloxacin MIC by checkerboard assay
Staphylococcus aureus [15] = experiment: Ratio of MIC for clinical isolates of methicillin-resistant Staphylococcus aureus ST10760 to MIC for clinical isolates of methicillin-resistant Staphylococcus aureus ST10760 in presence of norfloxacin
Staphylococcus aureus [16] = experiment: Potentiation of norfloxacin-induced antibacterial activity against clinical isolates of methicillin-resistant Staphylococcus aureus P4629 assessed as reduction in norfloxacin MIC by checkerboard assay relative to control
Staphylococcus aureus [17] = experiment: Potentiation of norfloxacin-induced antibacterial activity against clinical isolates of methicillin-resistant Staphylococcus aureus ST10342 assessed as norfloxacin MIC by checkerboard assay
Staphylococcus aureus [18] = experiment: Potentiation of norfloxacin-induced antibacterial activity against clinical isolates of methicillin-resistant Staphylococcus aureus P4629 assessed as norfloxacin MIC by checkerboard assay
Staphylococcus aureus [19] = experiment: Ratio of MIC for clinical isolates of methicillin-resistant Staphylococcus aureus P4423 to MIC for clinical isolates of methicillin-resistant Staphylococcus aureus P4423 in presence of norfloxacin
Staphylococcus aureus [20] = experiment: Antibacterial activity against clinical isolates of methicillin-resistant Staphylococcus aureus ST2071 by checkerboard assay in presence of norfloxacin
Staphylococcus aureus [21] = experiment: Antibacterial activity against clinical isolates of methicillin-resistant Staphylococcus aureus ST10342 by broth microdilution assay
Staphylococcus aureus [22] = experiment: Potentiation of norfloxacin-induced antibacterial activity against clinical isolates of methicillin-resistant Staphylococcus aureus ST10760 assessed as norfloxacin MIC by checkerboard assay
Staphylococcus aureus [23] = experiment: Antibacterial activity against clinical isolates of methicillin-resistant Staphylococcus aureus P4423 by broth microdilution assay
Staphylococcus aureus [24] = experiment: Bactericidal activity against clinical isolates of methicillin-resistant Staphylococcus aureus ST2071 assessed as reduction in viability at 0.5 MIC after 24 hrs by time kill kinetic analysis in presence of norfloxacin relative to control
Staphylococcus aureus [25] = experiment: Potentiation of norfloxacin-induced antibacterial activity against clinical isolates of methicillin-resistant Staphylococcus aureus ST2071 assessed as norfloxacin MIC by checkerboard assay
Staphylococcus aureus [26] = experiment: Bactericidal activity against clinical isolates of methicillin-resistant Staphylococcus aureus ST2071 assessed as reduction in viability at 0.5 MIC after 24 hrs by time kill kinetic analysis relative to control
Staphylococcus aureus [27] = experiment: Antibacterial activity against clinical isolates of methicillin-resistant Staphylococcus aureus P4650 by broth microdilution assay
Staphylococcus aureus [28] = experiment: Antibacterial activity against clinical isolates of methicillin-resistant Staphylococcus aureus ST10342 by checkerboard assay in presence of norfloxacin
Staphylococcus aureus [29] = experiment: Ratio of MIC for clinical isolates of methicillin-resistant Staphylococcus aureus ST2071 to MIC for clinical isolates of methicillin-resistant Staphylococcus aureus ST2071 in presence of norfloxacin
Staphylococcus aureus [30] = experiment: Antibacterial activity against clinical isolates of methicillin-resistant Staphylococcus aureus ST2071 by broth microdilution assay
Staphylococcus aureus [31] = experiment: Potentiation of norfloxacin-induced antibacterial activity against clinical isolates of methicillin-resistant Staphylococcus aureus P4423 assessed as norfloxacin MIC by checkerboard assay
Staphylococcus aureus [32] = experiment: Ratio of MIC for clinical isolates of methicillin-resistant Staphylococcus aureus P4629 to MIC for clinical isolates of methicillin-resistant Staphylococcus aureus P4629 in presence of norfloxacin
Staphylococcus aureus [33] = experiment: Ratio of MIC for clinical isolates of methicillin-resistant Staphylococcus aureus ST10342 to MIC for clinical isolates of methicillin-resistant Staphylococcus aureus ST10342 in presence of norfloxacin
Staphylococcus aureus [34] = experiment: Ratio of MIC for clinical isolates of methicillin-resistant Staphylococcus aureus P4650 to MIC for clinical isolates of methicillin-resistant Staphylococcus aureus P4650 in presence of norfloxacin

SMILES | fold change (FC) (Staphylococcus aureus [1]) | fractional inhibitory concentration index (FICI) (Staphylococcus aureus [2]) | fold change (FC) (Staphylococcus aureus [3]) | fold change (FC) (Staphylococcus aureus [4]) | MIC (Staphylococcus aureus [5]) [µg/mL] | fractional inhibitory concentration index (FICI) (Staphylococcus aureus [6]) | fractional inhibitory concentration index (FICI) (Staphylococcus aureus [7]) | fold change (FC) (Staphylococcus aureus [8]) | fold change (FC) (Staphylococcus aureus [9]) | fold change (FC) (Staphylococcus aureus [10]) | MIC (Staphylococcus aureus [11]) [µg/mL] | MIC (Staphylococcus aureus [12]) [µg/mL] | fractional inhibitory concentration index (FICI) (Staphylococcus aureus [13]) | MIC (Staphylococcus aureus [14]) [µg/mL] | Ratio (Staphylococcus aureus [15]) | fold change (FC) (Staphylococcus aureus [16]) | MIC (Staphylococcus aureus [17]) [µg/mL] | MIC (Staphylococcus aureus [18]) [µg/mL] | Ratio (Staphylococcus aureus [19]) | fractional inhibitory concentration index (FICI) (Staphylococcus aureus [20]) | other results
COc1cc(OC)c([C@@H]2COc3c(cc(/C=C/C(=O)c4ccc(OC)c(OC)c4)c4c3C=CC(C)(C)O4)C2)cc1/C=C/C(=O)c1ccc(OC)c(OC)c1 | 2 | 0.75 | 4 | 4 | 12.5 (≈ 17.1 µM) | 0.5 | 0.75 | 8 | 4 | 4 | 12.5 (≈ 17.1 µM) | 25 (≈ 34.1 µM) | 0.375 | 62.5 | 4 | 4 | 62.5 | 125 | 4 | 0.5 | MIC (Staphylococcus aureus [21]): 12.5 µg/mL (≈ 17.1 µM); MIC (Staphylococcus aureus [22]): 62.5 µg/mL; MIC (Staphylococcus aureus [23]): 25 µg/mL (≈ 34.1 µM); fold change (FC) (Staphylococcus aureus [24]): <=3; MIC (Staphylococcus aureus [25]): 125 µg/mL; fold change (FC) (Staphylococcus aureus [26]): <=1.52; MIC (Staphylococcus aureus [27]): 12.5 µg/mL (≈ 17.1 µM); fractional inhibitory concentration index (FICI) (Staphylococcus aureus [28]): 0.75; Ratio (Staphylococcus aureus [29]): 4; MIC (Staphylococcus aureus [30]): 25 µg/mL (≈ 34.1 µM); MIC (Staphylococcus aureus [31]): 62.5 µg/mL
COc1ccc([C@@H]2COc3c(cc(/C=C/C(=O)c4ccco4)c4c3C=CC(C)(C)O4)C2)c(OC)c1 | 2 | 0.625 | 8 | 4 | 12.5 (≈ 26.5 µM) | 0.625 | 0.5 | 8 | 8 | 8 | 12.5 (≈ 26.5 µM) | 25 (≈ 52.9 µM) | 0.375 | 62.5 | 4 | 4 | 31.2 | 125 | 4 | 0.375 | Ratio (Staphylococcus aureus [32]): 4; MIC (Staphylococcus aureus [21]): 12.5 µg/mL (≈ 26.5 µM); MIC (Staphylococcus aureus [22]): 62.5 µg/mL; MIC (Staphylococcus aureus [23]): 12.5 µg/mL (≈ 26.5 µM); fold change (FC) (Staphylococcus aureus [24]): <=3; MIC (Staphylococcus aureus [25]): 62.5 µg/mL; Ratio (Staphylococcus aureus [33]): 4; fold change (FC) (Staphylococcus aureus [26]): <=1.52; MIC (Staphylococcus aureus [27]): 12.5 µg/mL (≈ 26.5 µM); fractional inhibitory concentration index (FICI) (Staphylococcus aureus [28]): 0.5; Ratio (Staphylococcus aureus [29]): 4; Ratio (Staphylococcus aureus [34]): 4; MIC (Staphylococcus aureus [30]): 25 µg/mL (≈ 52.9 µM); MIC (Staphylococcus aureus [31]): 31.2 µg/mL
